Assay: xn = mol fraction of the nth substance listed
Details: 101 kPa, Liquid, Buoyancy - hydrostatic balance with magnetic suspension - one sinker

CN(C)P(=O)(N(C)C)N(C)C [tris(dimethylamino)phosphine oxide] + O
mass density [kg/m3]
Details	288.15 K	293.15 K	298.15 K	303.15 K	308.15 K
x1 = 0.0023	1001.1	1000.05	998.77	997.25	995.51
x1 = 0.00503	1003.51	1002.29	1000.85	999.27	997.34
x1 = 0.0101	1007.82	1006.2	1004.52	1002.76	1000.79
x1 = 0.0297	1024.31	1021.59	1018.84	1016.02	1013.39
x1 = 0.05	1036.43	1033.08	1029.72	1026.56	1023.13
x1 = 0.07	1043.92	1040.44	1036.96	1033.47	1029.7
x1 = 0.1	1050.24	1046.86	1042.73	1039	1034.91
x1 = 0.1496	1054.84	1050.62	1046.2	1041.95	1037.57
x1 = 0.1999	1054.7	1050.33	1045.83	1041.49	1037.05
x1 = 0.3008	1049.56	1045	1040.47	1036.04	1031.66
x1 = 0.3999	1044.61	1040.34	1035.76	1031.36	1026.94
x1 = 0.5002	1040.86	1036.54	1032.12	1027.81	1023.35
x1 = 0.6	1038.03	1033.74	1029.39	1025.15	1020.66
x1 = 0.6997	1035.45	1031.15	1026.79	1022.51	1018
x1 = 0.8004	1033.06	1028.72	1024.37	1020.03	1015.57
x1 = 0.8505	1031.95	1027.66	1023.31	1019.05	1014.64
x1 = 0.91	1030.54	1026.29	1021.95	1017.74	1013.41
x1 = 0.9499	1029.63	1025.4	1021.07	1016.88	1012.59
x1 = 0.9703	1029.16	1024.92	1020.61	1016.44	1012.14
x1 = 0.9849	1028.81	1024.6	1020.3	1016.12	1011.86
x1 = 0.9937	1028.61	1024.4	1020.1	1015.93	1011.68
x1 = 0.9967	1028.54	1024.33	1020.03	1015.86	1011.61
x1 = 1	1028.47	1024.26	1019.96	1015.79	1011.54
